Drawing on patent publication US20230212174A1, “PYRROLO[2,1-F][1,2,4]TRIAZINE DERIVATIVE AND USE THEREOF” (Tencent Technology (Shenzhen) Company Limited, priority 2021, published 2023), this text covers IC50 for 9 compounds.

Structures are written as SMILES.

What is called IC50 is the concentration that inhibits the measured activity by half.

The target of the experiment is T1, TTK (Homo sapiens, UniProt P33981).
T1 sequence (P33981 1-857): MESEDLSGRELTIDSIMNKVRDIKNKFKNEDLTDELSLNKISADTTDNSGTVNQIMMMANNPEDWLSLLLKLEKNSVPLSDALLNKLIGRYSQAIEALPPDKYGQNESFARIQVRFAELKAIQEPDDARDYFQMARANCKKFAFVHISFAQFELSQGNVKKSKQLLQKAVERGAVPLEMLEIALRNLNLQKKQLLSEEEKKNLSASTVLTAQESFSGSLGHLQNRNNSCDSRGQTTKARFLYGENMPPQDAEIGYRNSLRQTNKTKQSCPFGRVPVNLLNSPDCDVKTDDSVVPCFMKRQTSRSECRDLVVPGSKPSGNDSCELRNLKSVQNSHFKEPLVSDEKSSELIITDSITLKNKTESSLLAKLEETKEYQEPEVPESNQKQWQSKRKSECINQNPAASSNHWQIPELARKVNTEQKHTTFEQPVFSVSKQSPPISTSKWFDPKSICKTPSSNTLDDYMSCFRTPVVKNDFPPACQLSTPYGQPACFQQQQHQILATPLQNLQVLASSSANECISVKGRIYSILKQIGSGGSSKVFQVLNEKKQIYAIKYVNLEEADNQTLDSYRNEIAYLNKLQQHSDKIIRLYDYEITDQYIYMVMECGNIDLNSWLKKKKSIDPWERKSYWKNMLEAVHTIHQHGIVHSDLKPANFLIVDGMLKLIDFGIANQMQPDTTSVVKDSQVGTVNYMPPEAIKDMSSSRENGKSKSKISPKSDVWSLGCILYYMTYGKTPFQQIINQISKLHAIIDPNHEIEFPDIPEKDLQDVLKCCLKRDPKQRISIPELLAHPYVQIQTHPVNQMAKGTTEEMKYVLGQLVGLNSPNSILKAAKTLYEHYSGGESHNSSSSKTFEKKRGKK
Briefly: TTK inhibitory activity (kinase reaction, Fluorescein-PolyGT substrate, antibody/EDTA stop, Envision read). Format: biochemical. The note with it: 0.5 nM TTK, 7 uM ATP, 0.2 uM Fluorescein-PolyGT, 28° C., 30 min. The procedure:
The experiment aims to detect the inhibitory activity of the compound of the present disclosure on TTK in vitro.
The TTK kinase reaction system was 10 μL, including 0.5 nM TTK, test compound over a concentration gradient, 10 mM MgCl2, 2 mM DTT, 7 uM ATP, 0.2 uM Fluorescein-PolyGT (Fluorescein-Poly Glu:Tyr (4:1)), 0.01% Triton X-100, 0.01% BSA, and 50 mM HEPES pH 7.5. The enzyme and the test compound of the present disclosure were added into a 384-well plate, and then a substrate and ATP were added. Then the system was incubated at a constant temperature of 28° C. 30 min after the reaction, 10 μL of a mixed solution of a corresponding antibody and EDTA was added to terminate the reaction, and incubated for 60 min at a constant temperature of 28° C. The data was read on Envision instrument. A curve was plotted with the Log concentration of the inhibitor as the X axis and the inhibition rate as the Y axis, and IC50 was calculated by Y=Bottom+(Top-Bottom)/(1+(IC50/X)^HillSlope).
On to `CCOc1cc(-c2nncn2C)ccc1Nc1nc(NCC(C)(C)C)c2cccn2n1` [Compound 1], for which half-maximal inhibition (IC50) was put at 27 nM. That is a double-digit nanomolar value. With `CCOc1cc(-c2nncn2C)ccc1Nc1nc(NC2CCCC2)c2cccn2n1` [Compound 3] the figure was 8.9 nM; with `CCOc1cc(-c2nncn2C)ccc1Nc1nc(NC2CCOCC2)c2cccn2n1` [Compound 4], 4 nM; with `CCOc1cc(-c2nncn2C)ccc1Nc1nc(NC2CCCCC2)c2c(Cl)ccn2n1` [Compound 10], 5.5 nM. On to `CCOc1cc(-c2nncn2C)ccc1Nc1ncc2ccc(C3=CCCC3)n2n1` [Compound 12], for which the IC50 came to 8.7 nM.

Take `CCOc1cc(-c2nncn2C)ccc1Nc1ncc2ccc(C3CCCC3)n2n1` [Compound 13]: the half-inhibitory concentration (IC50) worked out at 7.1 nM. With `CCOc1cc(-c2nncn2C)ccc1Nc1ncc2ccc(C3CCCCC3)n2n1` [Compound 15] the figure was 4.2 nM; with `CCOc1cc(-c2nncn2C)ccc1Nc1ncc2ccc(C3CCOCC3)n2n1` [Compound 17], 6.3 nM; with `CCOc1cc(-c2nncn2C)ccc1Nc1ncc2ccc(-c3cnn(C)c3)n2n1` [Compound 18], 2.1 nM.
